Literature values as cited in patent US12702640B2, “Drug implants containing enzalutamide and methods of use thereof” (The Regents of the University of California, priority 2021, dated 2026).

Details: assuming 240 mg daily dose; systemic (e.g., oral) administration

steady state blood plasma concentration: about 6 μg/ml
SMILES: CNC(=O)c1ccc(N2C(=S)N(c3ccc(C#N)c(C(F)(F)F)c3)C(=O)C2(C)C)cc1F [enzalutamide, Enzalutamide]
